Data as given in article PMC9965906, “Discovery and Development Strategies for SARS-CoV-2 NSP3 Macrodomain Inhibitors” (Pathogens, 2023).
Values joined by “and” are separate entries in the source; they are usually repeats but may differ in a detail not shown here. Identical values can stand only once. Counter-ions that a name gives are not always drawn. Like-named read-outs stand apart in the source and are kept apart here.

Target: SARS-CoV-2 NSP3 Mac1 (Severe acute respiratory syndrome coronavirus 2, UniProt P0DTD1)
Experiment: biochemical
Type: binding
Conditions: for inhibition at 125 µM: read-out: Inhibition at top concentration of 125 µM (%)
[1] = FDA-approved compound library primary screen, 50 µM, single shot
[2] = MIDAS hit compounds and analogues
[3] = MIDAS hit compounds and analogues, top concentration 125 µM, 8-point 1:1 dilution, duplicate
[4] = MIDAS hit compounds and analogues, top concentration 125 µM, 8-point 1:1 dilution, duplicate, read-out: IC50
[5] = BioAscent virtual screening hit compounds, duplicate
[6] = FDA-approved hit compounds, confirmatory HTRF assays
[7] = MIDAS compound library primary screen

Structure (SMILES): CCCCCCCC/C=C\CCCCCCCC(=O)O.NCCO [Ethanolamine oleate, reference compound]
- NSP3 Mac1 inhibition at 50 µM (%) [1]: 56.1%

Structure (SMILES): CC(C)n1ncc2c(C(=O)NCc3cccs3)cc(-c3ccccc3)nc21 [IAL-MD0018, CC(C)N1N=CC=2C(=CC(=NC12)C=3C=CC=CC3)C(=O)NCC4=CC=CS4]
- Inhibition at top concentration of 125 µM (%) [2]: Not measurable
- IC50 in µM [3]: Not measurable

Structure (SMILES): CC(C)n1ncc2c(C(=O)N(C)Cc3ccc4c(c3)OCO4)cc(-c3cccs3)nc21 [IAL-MD0065, CC(C)N1N=CC=2C(=CC(=NC12)C3=CC=CS3)C(=O)N(C)CC=4C=CC=5OCOC5C4]
- inhibition at 125 µM [2]: 9.5%
- IC50 in µM [3]: Not measurable

Structure (SMILES): CCn1ncc2c(C(=O)N3CCOCC3)cc(-c3ccccc3)nc21 [IAL-MD0050, CCN1N=CC=2C(=CC(=NC12)C=3C=CC=CC3)C(=O)N4CCOCC4]
- Inhibition at top concentration of 125 µM (%) [2]: Not measurable
- IC50 in µM [3]: Not measurable

Structure (SMILES): NC(=O)c1ccc[n+]([C@@H]2O[C@H](COP(=O)([O-])OP(=O)(O)OC[C@H]3O[C@@H](n4cnc5c(N)ncnc54)[C@H](O)[C@@H]3O)[C@@H](O)[C@H]2O)c1 [Nadide, reference compound]
- NSP3 Mac1 inhibition at 50 µM (%) [1]: 100%
- inhibition at 50 µM [1]: 99.9%

Structure (SMILES): CC(=O)OCC1=C(C(=O)O)N2C(=O)[C@@H](NC(=O)CCC[C@@H](N)C(=O)O)[C@H]2SC1 [Cephalosporin C sodium, reference compound]
- inhibition at 50 µM [1]: 89.8%

Structure (SMILES): Cc1ccc(-c2cc(C(=O)N3CCOCC3)c3cnn(C(C)C)c3n2)s1 [IAL-MD0051, CC(C)N1N=CC=2C(=CC(=NC12)C3=CC=C(C)S3)C(=O)N4CCOCC4]
- inhibition at 125 µM [2]: 59.8%
- IC50 [4]: 12.6 µM
- assay effects in dose-response titration (MIDAS hits and analogues, higher compound concentrations): secondary assay effects at higher concentrations

Structure (SMILES): COc1cc2c(cc1/C=C/C(=O)O)OC(C)C2 (centres unmarked) [IAL-MD0306, COc1cc2c(cc1/C=C/C(=O)O)OC(C)C2]
- inhibition at 187 µM (BioAscent hit compounds, 187 µM, read-out: Inhibition at top screening concentration of 187 µM): 81.3%
- Hill slope (BioAscent hit compounds, confirmatory IC50 curves): 0.8
- IC50 (BioAscent hit compounds, top concentration 187 µM, 8-point 1:1 dilution, duplicate, read-out: IC50): 18 µM
- inhibition at 25 µM [5]: 63.7%

Structure (SMILES): CC(CNC(=O)c1cc(-c2cccs2)nc2c1cnn2C(C)C)N1CCCCC1 (centres unmarked) [IAL-MD0108, CC(C)N1N=CC=2C(=CC(=NC12)C3=CC=CS3)C(=O)NCC(C)N4CCCCC4]
- inhibition at 125 µM [2]: 60.5%
- IC50 [4]: 68 µM and 67.8 µM

Structure (SMILES): O=C(O)CCCC[C@@H]1SC[C@@H]2NC(=O)N[C@@H]21 [Biotin, reference compound]
- NSP3 Mac1 inhibition at 50 µM (%) [1]: 107%
- inhibition at 50 µM [1]: 108%

Structure (SMILES): CN1CCCN=C1/C=C/c1cccc(O)c1 [Oxantel pamoate, reference compound]
- IC50: 11.7 µM and 12 µM
- NSP3 Mac1 inhibition at 50 µM (%) [1]: 56%
- inhibition at 50 µM [1]: 55.9%
- Hill slope [6]: 1.34

Structure (SMILES): COc1ccc(-c2cc(C(=O)N(C)C)c3ccccc3n2)cc1 [IAL-MD0088, COC=1C=CC(=CC1)C=2C=C(C(=O)N(C)C)C=3C=CC=CC3N2]
- inhibition at 125 µM [2]: 79.4%
- IC50 [4]: 24 µM

Structure (SMILES): COc1ccc(-c2cc(C(=O)Nc3ccc(S(C)(=O)=O)cc3)c3ccccc3n2)cc1 [IAL-MD0058, COC=1C=CC(=CC1)C=2C=C(C(=O)NC=3C=CC(=CC3)S(=O)(=O)C)C=4C=CC=CC4N2]
- inhibition at 125 µM [2]: 18.7%
- IC50 in µM [3]: Not measurable

Structure (SMILES): Nc1ccc2c(c1)C/C(=C/c1ccco1)C2=O [BCC0121661, Nc1ccc2c(c1)C/C(=C/c1ccco1)C2=O]
- inhibition at 25 µM [5]: 56.9%

Structure (SMILES): Nc1nc(/C(=C/CC(=O)O)C(=O)N[C@@H]2C(=O)N3C(C(=O)O)=CCS[C@H]23)cs1 [Ceftibuten, reference compound]
- inhibition at 50 µM [1]: 71.6%

Structure (SMILES): CC1(C(=O)N2CCCC(c3c[nH]c4ncccc34)C2)CCC(=O)NC1 (centres unmarked) [IAL-MD0114, CC1(CCC(=O)NC1)C(=O)N2CCCC(C2)C3=CNC=4N=CC=CC34]
- inhibition at 125 µM [2]: 13.4%
- IC50 in µM [3]: Not measurable

Structure (SMILES): Oc1nc2ccccc2nc1-c1c[nH]c2ccccc12 [BCC0071692, Oc1nc2ccccc2nc1-c1c[nH]c2ccccc12]
- inhibition at 25 µM [5]: 35%

Structure (SMILES): COc1ccc(-c2cc(C(=O)O)c3ccc(OC)cc3n2)cc1 [IAL-MD0030, COC=1C=CC(=CC1)C=2C=C(C(=O)O)C=3C=CC(OC)=CC3N2]
- inhibition at 125 µM [2]: 44.7%
- IC50 in µM [3]: Not measurable

Structure (SMILES): CC(=O)Nc1cccc(C(=O)N2CCC(c3c[nH]c4ncccc34)CC2)c1 [IAL-MD0078, CC(=O)NC=1C=CC=C(C1)C(=O)N2CCC(CC2)C3=CNC=4N=CC=CC34]
- inhibition at 125 µM [2]: 10.5%
- IC50 in µM [3]: Not measurable

Structure (SMILES): CN1CCC(Cn2ccnc2-c2ccc(-c3ccccc3C#N)o2)C1 (centres unmarked) [IAL-MD0129, N#CC1=CC=CC=C1C2=CC=C(C3=NC=CN3CC4CN(C)CC4)O2]
- inhibition at 25 µM [7]: 55%
- Inhibition at top concentration of 125 µM (%) [2]: Not measurable due to compound precipitation
- IC50 [4]: 14.2 µM

Structure (SMILES): COc1cc(/C=C2\Oc3cc(O)ccc3C2=O)ccc1O [BCC0002149, COc1cc(/C=C2\Oc3cc(O)ccc3C2=O)ccc1O]
- inhibition at 25 µM [5]: 47.2%

Structure (SMILES): Nc1ncnc2[nH]cnc12 [adenine, reference compound]
- inhibitory activity in FDA-approved library screen (primary screen at the set screening concentration): did not show any inhibitory activity

Structure (SMILES): CC(C)n1ncc2c(C(=O)N3CCC(C)(O)CC3)cc(-c3cccs3)nc21 [IAL-MD0107, CC(C)N1N=CC=2C(=CC(=NC12)C3=CC=CS3)C(=O)N4CCC(C)(O)CC4]
- inhibition at 125 µM [2]: 40.5%
- IC50 in µM [3]: Not measurable

Structure (SMILES): CN1C(=O)c2ccc(N3CCCC3)cc2C1=O [BCC0067629, CN1C(=O)c2ccc(N3CCCC3)cc2C1=O]
- inhibition at 25 µM [5]: 30.5%

Structure (SMILES): CC(=O)[O][Hg][c]1ccccc1 [Phenylmercuric acetate, reference compound]
- NSP3 Mac1 inhibition at 50 µM (%): 58.1%

Structure (SMILES): CC(=O)Nc1ccc(C=Cc2cc(C(=O)O)c3cc(C)ccc3n2)cc1 [IAL-MD0059, CC(=O)NC=1C=CC(C=CC=2C=C(C(=O)O)C=3C=C(C)C=CC3N2)=CC1]
- inhibition at 125 µM [2]: 63%
- IC50 [4]: 22.8 µM

Structure (SMILES): CC(C)(O/N=C(\C(=O)N[C@@H]1C(=O)N2C(C(=O)[O-])=C(C[n+]3ccccc3)CS[C@H]12)c1csc(N)n1)C(=O)O [Ceftazidime, reference compound]
- NSP3 Mac1 inhibition at 50 µM (%) [1]: 108%
- inhibition at 50 µM [1]: 108%
- Hill slope [6]: 1.38
- IC50 (IC50): 37.1 µM and 37 µM

Structure (SMILES): O=C(c1ccc(NCC2CC2)nc1)N1CCC(c2c[nH]c3ncccc23)CC1 [IAL-MD0110, O=C(N1CCC(CC1)C2=CNC=3N=CC=CC23)C=4C=CC(NCC5CC5)=NC4]
- inhibition at 125 µM [2]: 7.8%
- IC50 in µM [3]: Not measurable

Structure (SMILES): CO/N=C(\C(=O)N[C@@H]1C(=O)N2C(C(=O)[O-])=C(C[N+]3(C)CCCC3)CS[C@H]12)c1csc(N)n1.Cl [Cefepime hydrochloride, reference compound]
- NSP3 Mac1 inhibition at 50 µM (%) [1]: 42.1%

Structure (SMILES): CCn1ncc2c(C(=O)NCCNC(C)=O)cc(-c3cccs3)nc21 [IAL-MD0092, CCN1N=CC=2C(=CC(=NC12)C3=CC=CS3)C(=O)NCCNC(=O)C]
- inhibition at 125 µM [2]: 17.1%
- IC50 in µM [3]: Not measurable

Structure (SMILES): CCCCNC(=O)c1ccc(-c2cc(N)nc3[nH]ccc23)o1 [IAL-MD0134, O=C(NCCCC)C1=CC=C(C2=C3C(NC=C3)=NC(N)=C2)O1]
- inhibition at 125 µM [2]: 77.8%
- IC50 [4]: 25 µM and 25.3 µM

Structure (SMILES): CCn1ncc2c(C(=O)N(Cc3ccccn3)C(C)C)cc(-c3ccccc3)nc21 [IAL-MD0109, CCN1N=CC=2C(=CC(=NC12)C=3C=CC=CC3)C(=O)N(CC=4C=CC=CN4)C(C)C]
- Inhibition at top concentration of 125 µM (%) [2]: Not measurable
- IC50 in µM [3]: Not measurable

Structure (SMILES): CCOc1ccc2nc3cc(N)ccc3c(N)c2c1 [Ethacridine lactate, reference compound]
- inhibition at 50 µM [1]: 49.3%

Structure (SMILES): COc1ccc(NC(=O)c2cc(-c3ccc(C)cc3)nc3onc(C)c23)cc1 [IAL-MD0037, COC=1C=CC(NC(=O)C=2C=C(N=C3ON=C(C)C23)C=4C=CC(C)=CC4)=CC1]
- inhibition at 125 µM [2]: 9.3%
- IC50 in µM [3]: Not measurable

Structure (SMILES): CCn1ncc2c(C(=O)N3CCC(C(O)c4ccccc4)CC3)cc(-c3cccs3)nc21 (centres unmarked) [IAL-MD0056, CCN1N=CC=2C(=CC(=NC12)C3=CC=CS3)C(=O)N4CCC(CC4)C(O)C=5C=CC=CC5]
- inhibition at 125 µM [2]: 7%
- IC50 in µM [3]: Not measurable

Structure (SMILES): CCn1ncc2c(C(=O)N(Cc3ccccn3)C(C)C)cc(-c3cccs3)nc21 [IAL-MD0071, CCN1N=CC=2C(=CC(=NC12)C3=CC=CS3)C(=O)N(CC=4C=CC=CN4)C(C)C]
- inhibition at 125 µM [2]: 36.8%
- IC50 in µM [3]: Not measurable

Structure (SMILES): CC1c2cccn2CCN1C(=O)c1cc(-c2cccs2)nc2c1cnn2C(C)C (centres unmarked) [IAL-MD0072, CC(C)N1N=CC=2C(=CC(=NC12)C3=CC=CS3)C(=O)N4CCN5C=CC=C5C4C]
- inhibition at 125 µM [2]: 9.8%
- IC50 in µM [3]: Not measurable

Structure (SMILES): C=C1c2cccc(O)c2C(=O)C2=C(O)[C@]3(O)C(=O)C(C(N)=O)=C(O)[C@@H](N(C)C)[C@@H]3[C@@H](O)[C@H]12 [Methacycline hydrochloride, reference compound]
- NSP3 Mac1 inhibition at 50 µM (%) [1]: 87%
- inhibition at 50 µM [1]: 86.8%
- outcome of dose-response titration (FDA-approved hit compounds, top concentration 125 µM): strong assay interference

Structure (SMILES): CCn1ncc2c(C(=O)N3CCNC(=O)C3)cc(-c3cccs3)nc21 [IAL-MD0040, CCN1N=CC=2C(=CC(=NC12)C3=CC=CS3)C(=O)N4CCNC(=O)C4]
- inhibition at 25 µM [7]: 51%
- inhibition at 125 µM [2]: 81%
- IC50 [4]: 21 µM and 20.6 µM

Structure (SMILES): CC(=O)N1CCN(C(=O)c2ccc(-c3ncnc4[nH]ccc34)cc2)CC1 [IAL-MD0143, O=C(C1=CC=C(C2=C3C(NC=C3)=NC=N2)C=C1)N4CCN(C(C)=O)CC4]
- inhibition at 125 µM [2]: 71.9%
- IC50 [4]: 45 µM

Structure (SMILES): CCn1ncc2c(C(=O)Nc3cc(Cl)ccc3OC)cc(-c3cccs3)nc21 [IAL-MD0038, CCN1N=CC=2C(=CC(=NC12)C3=CC=CS3)C(=O)NC=4C=C(Cl)C=CC4OC]
- inhibition at 125 µM [2]: 50.5%
- IC50 in µM [3]: Not measurable

Structure (SMILES): CNC(=O)CN(C)C(=O)c1cc(-c2cccs2)nc2c1c(C)nn2C [IAL-MD0081, CNC(=O)CN(C)C(=O)C=1C=C(N=C2N(C)N=C(C)C12)C3=CC=CS3]
- inhibition at 125 µM [2]: 53%
- IC50 in µM [3]: Not measurable
